Our source for the IC50 values is patent publication US20240383915A1, “OXAZEPINE COMPOUNDS AND USES THEREOF IN THE TREATMENT OF CANCER” (Genentech, Inc., priority 2021, published 2024).

For one test, the target named is KRas(G12V) (Homo sapiens (Human), UniProt P01116, G12V). Put plainly: KRas(G12V) GDP HTRF (BODIPY-GDP exchange TR-FRET). The class given is biochemical. On the technique in general: Time-resolved FRET reads energy transfer from a long-lived donor to a nearby acceptor.
The target in the next test is KRas (Homo sapiens (Human), UniProt P01116). Put plainly: KRas GDP HTRF (BODIPY-GDP exchange TR-FRET). The format is biochemical. The method, then: KRAS Biochemical Assay—BODIPY-GDP Exchange TR-FRET. Biochemical compound potencies were assessed by evaluating inhibition of SOS1-mediated nucleotide exchange in KRAS G12D. The SOS1-promoted exchange of fluorescently-labeled GDP (BODIPY-GDP) was monitored by time-resolved fluorescence resonance energy transfer (TR-FRET). Compounds solubilized in DMSO were dispensed as concentration series into 384-well white assay plates. […] The reaction was initiated with the addition of 5 μL of 3 nM recombinant human SOS1 and 300 nM BODIPY-GDP in assay buffer. After a 60-minute incubation, the fluorescence was measured with excitation at 337 nm and emission at 490 and 520 nm. The TR-FRET ratio was determined as the fluorescence at 520 nm divided by the fluorescence at 490 nm multiplied by 10,000. […] The normalized TR-FRET results were plotted against compound concentration, and the data fit to a 4-parameter Hill equation to determine the IC50 values.
KRas, sequence (P01116-2 other isoform, or with tags, fused parts or gaps): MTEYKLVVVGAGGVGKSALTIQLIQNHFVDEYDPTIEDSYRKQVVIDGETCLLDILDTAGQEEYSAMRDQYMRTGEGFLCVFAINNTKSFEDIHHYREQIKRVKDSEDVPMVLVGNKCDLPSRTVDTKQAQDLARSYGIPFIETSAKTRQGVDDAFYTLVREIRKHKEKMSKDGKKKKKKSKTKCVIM

Structures are written as SMILES.

KRas(G12V), sequence (P01116-2 other isoform, or with tags, fused parts or gaps G12V): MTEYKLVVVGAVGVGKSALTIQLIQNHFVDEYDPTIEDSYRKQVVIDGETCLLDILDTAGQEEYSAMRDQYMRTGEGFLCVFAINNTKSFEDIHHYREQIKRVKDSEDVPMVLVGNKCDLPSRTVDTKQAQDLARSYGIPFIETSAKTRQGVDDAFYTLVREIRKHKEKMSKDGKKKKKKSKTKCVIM

One may read the IC50 as the midpoint of a concentration-inhibition curve. Take `Cc1cc(N)nc(-c2c(Cl)c3c4c(nc(OC[C@@H]5COCCN5)nc4c2F)N([C@H](C)c2cccnc2N)CCO3)c1C(F)(F)F` (atropisomer, axis not shown) [Example 96, 6-((R)-4-((R)-1-(2-aminopyridin-3-yl)ethyl)-8-chloro-10-fluoro-2-(((S)-morpholin-3-yl)methoxy)-5,6-dihydro-4H-[1,4]oxazepino[5,6,7-de]quinazolin-9-yl)-4-methyl-5-(trifluoromethyl)pyridin-2-amine]: the 50% inhibitory concentration (IC50) against KRas(G12V) was 0.08 nM; on KRas, 0.299 nM.
With `Cc1cc(N)nc(-c2cc3ncnc4c3c(c2Cl)OCCN4Cc2ccns2)c1C(F)(F)F` [Example 22, 6-(8-chloro-4-(isothiazol-5-ylmethyl)-5,6-dihydro-4H-[1,4]oxazepino[5,6,7-de]quinazolin-9-yl)-4-methyl-5-(trifluoromethyl)pyridin-2-amine], the IC50 is 11000 nM against KRas(G12V) and 43000 nM on KRas.
`Cc1cc(N)nc(-c2c(Cl)c3c4c(ncnc4c2F)N([C@H](C)c2cccnc2N)CCO3)c1C(F)(F)F` (atropisomer, axis not shown) [Example 53a, 6-((R)-4-((R)-1-(2-aminopyridin-3-yl)ethyl)-8-chloro-10-fluoro-5,6-dihydro-4H-[1,4]oxazepino[5,6,7-de]quinazolin-9-yl)-4-methyl-5-(trifluoromethyl)pyridin-2-amine]: the IC50 was 0.37 nM at KRas(G12V) and 1.2 nM on KRas.
For `Cc1cc(N)nc(-c2cc3ncnc4c3c(c2Cl)OCCN4Cc2cnc[nH]2)c1C(F)(F)F` [Example 30, 6-(4-((1H-imidazol-5-yl)methyl)-8-chloro-5,6-dihydro-4H-[1,4]oxazepino[5,6,7-de]quinazolin-9-yl)-4-methyl-5-(trifluoromethyl)pyridin-2-amine], in that order: 4700 nM and 35000 nM.
In the same order, the values of `Cc1cc(N)nc(-c2c(Cl)c3c4c(nc(OC[C@@]56CCN5CC(F)(F)C6)nc4c2F)N([C@H](C)c2nccnc2N)CCO3)c1C(F)(F)F` (single isomer, unassigned) [Example 162d] are 410 nM and 896 nM.
For `Cc1cc(N)nc(-c2cc3ncnc4c3c(c2Cl)OCCN4C2CCc3ccncc32)c1C(F)(F)F` (stereo not drawn) [Example 21, 6-(8-chloro-4-(6,7-dihydro-5H-cyclopenta[c]pyridin-7-yl)-5,6-dihydro-4H-[1,4]oxazepino[5,6,7-de]quinazolin-9-yl)-4-methyl-5-(trifluoromethyl)pyridin-2-amine], in that order: 1600 nM and 3400 nM.
Consider `Cc1cc(N)nc(-c2cc3ncnc4c3c(c2Cl)OCCN4Cc2cccnc2)c1C(F)(F)F` [Example 46, 6-(8-chloro-4-(pyridin-3-ylmethyl)-5,6-dihydro-4H-[1,4]oxazepino[5,6,7-de]quinazolin-9-yl)-4-methyl-5-(trifluoromethyl)pyridin-2-amine], for which the 50% inhibitory concentration (IC50) against KRas(G12V) was 11000 nM; on KRas it was 46000 nM.
For `Cc1cc(N)nc(-c2c(Cl)c3c4c(nc(OC[C@H]5CC[C@@H]6CN(CC(F)(F)F)CCN56)nc4c2F)N([C@H](C)c2cccnc2N)CCO3)c1C(F)(F)F` (atropisomer, axis not shown; (aR)) [Example 129b, 6-((R)-4-((R)-1-(2-aminopyridin-3-yl)ethyl)-8-chloro-10-fluoro-2-(((6R,8aR)-2-(2,2,2-trifluoroethyl)octahydropyrrolo[1,2-a]pyrazin-6-yl)methoxy)-5,6-dihydro-4H-[1,4]oxazepino[5,6,7-de]quinazolin-9-yl)-4-methyl-5-(trifluoromethyl)pyridin-2-amine], in that order: 0.32 nM and 0.39 nM.
For `Cc1cc(N)nc(-c2cc3ncnc4c3c(c2Cl)OC[C@H](CC#N)N4C)c1C(F)(F)F` [Example 43, (S)-2-(9-(6-amino-4-methyl-3-(trifluoromethyl)pyridin-2-yl)-8-chloro-4-methyl-5,6-dihydro-4H-[1,4]oxazepino[5,6,7-de]quinazolin-5-yl)acetonitrile], in that order: 2000 nM and 4900 nM.
For `Cc1cc(N)nc(-c2c(Cl)c3c4c(nc(OCC56C[C@H](F)CN5C[C@H](F)C6)nc4c2F)N([C@H](C)c2cccnc2N)CCO3)c1C(F)(F)F` (stereo partly drawn) [Example 98b, 6-((9R)-4-((R)-1-(2-aminopyridin-3-yl)ethyl)-8-chloro-2-(((2R,6S)-2,6-difluorotetrahydro-1H-pyrrolizin-7a(5H)-yl)methoxy)-10-fluoro-5,6-dihydro-4H-[1,4]oxazepino[5,6,7-de]quinazolin-9-yl)-4-methyl-5-(trifluoromethyl)pyridin-2-amine], in that order: 0.1 nM and 0.125 nM.
For the compound `Cc1cc(N)nc(-c2cc3ncnc4c3c(c2Cl)OCCN4CCC#N)c1C(F)(F)F` [Example 13, 3-(9-(6-amino-4-methyl-3-(trifluoromethyl)pyridin-2-yl)-8-chloro-5,6-dihydro-4H-[1,4]oxazepino[5,6,7-de]quinazolin-4-yl)propanenitrile], the half-inhibitory concentration (IC50) at KRas(G12V) stood at 13000 nM; against KRas, 36000 nM.
For `Cc1cc(N)nc(-c2c(Cl)c3c4c(nc(OC[C@@]56CCN5CC(F)(F)C6)nc4c2F)N([C@H](C)c2nccnc2N)CCO3)c1C(F)(F)F` (single isomer, unassigned) [Example 162c], the half-maximal inhibitory concentration (IC50) was 370 nM on KRas(G12V) and 830 nM at KRas.
Regarding `Cc1cc(N)nc(-c2c(Cl)c3c4c(nc(OC[C@@H]5CC[C@H]6CN(CC(F)(F)F)CCN56)nc4c2F)N([C@H](C)c2cccnc2N)CCO3)c1C(F)(F)F` (atropisomer, axis not shown; (aS)) [Example 129a, 6-((R)-4-((R)-1-(2-aminopyridin-3-yl)ethyl)-8-chloro-10-fluoro-2-(((6S,8aS)-2-(2,2,2-trifluoroethyl)octahydropyrrolo[1,2-a]pyrazin-6-yl)methoxy)-5,6-dihydro-4H-[1,4]oxazepino[5,6,7-de]quinazolin-9-yl)-4-methyl-5-(trifluoromethyl)pyridin-2-amine], the 50% inhibitory concentration (IC50) against KRas(G12V) came out at 0.31 nM; against KRas, 0.232 nM.
For `Cc1cc(N)nc(-c2c(Cl)c3c4c(nc(OC[C@@H]5CCCN5CC(F)F)nc4c2F)N([C@H](C)c2nccnc2N)CCO3)c1C(F)(F)F` (atropisomer, axis not shown) [Example 158b, 3-((R)-1-((S)-9-(6-amino-4-methyl-3-(trifluoromethyl)pyridin-2-yl)-8-chloro-2-(((S)-1-(2,2-difluoroethyl)pyrrolidin-2-yl)methoxy)-10-fluoro-5,6-dihydro-4H-[1,4]oxazepino[5,6,7-de]quinazolin-4-yl)ethyl)pyrazin-2-amine], in that order: 97 nM and 680 nM.
For `Cc1cc(N)nc(-c2c(Cl)c3c4c(nc(OC[C@@]56CCCN5C[C@H](F)C6)nc4c2F)N([C@H](C)c2cc(F)cnc2N)CCO3)c1C(F)(F)F` (atropisomer, axis not shown; (aS)) [Example 130a, 6-((R)-4-((R)-1-(2-amino-5-fluoropyridin-3-yl)ethyl)-8-chloro-10-fluoro-2-(((2R,7aS)-2-fluorotetrahydro-1H-pyrrolizin-7a(5H)-yl)methoxy)-5,6-dihydro-4H-[1,4]oxazepino[5,6,7-de]quinazolin-9-yl)-4-methyl-5-(trifluoromethyl)pyridin-2-amine], in that order: 0.06 nM and 0.07 nM.
